Data taken from ChEMBL document CHEMBL1806422, “Effects of C7 substitutions in a high affinity microtubule-binding taxane on antitumor activity and drug transport” (Bioorg Med Chem Lett, 2011).

Tests used:
[1] = Cytotoxicity against multidrug-resistant human A2780AD cells overexpressing p-gp after 48 hrs by MTT assay; assay type: functional, cell-based; conditions: A2780 ADR
A2780 [2] = test: Resistant index, ratio of IC50 for multidrug-resistant human A2780AD cells overexpressing p-gp to IC50 for human A2780 cells; assay type: functional
[3] = Binding affinity to purified p-glycoprotein by fluorescence quenching assay
[4] = Efflux ratio of permeability from basolateral to apical side to apical to basolateral side in human Caco2 cells at 10 uM by LC/MS/MS analysis; assay type: ADME, cell-based; conditions: Caco-2
[5] = Apparent permeability from basolateral to apical side of human Caco2 cells at 10 uM by LC/MS/MS analysis; assay type: ADME, cell-based; conditions: Caco-2
[6] = Binding affinity to microtubule after 30 mins by epothilone-B competition binding assay
[7] = Apparent permeability from apical to basolateral side of human Caco2 cells at 10 uM by LC/MS/MS analysis; assay type: ADME, cell-based; conditions: Caco-2
A2780 [8] = test: Cytotoxicity against human A2780 cells after 48 hrs by MTT assay; assay type: functional, cell-based; conditions: A2780, 48 h

Row | SMILES | IC50 [1] [nM] | Ratio IC50 (A2780 [2]) | Kd [3] [nM] | efflux ratio at 10 µM [4] | Papp B→A at 10 µM [5] [×10⁻⁶ cm/s] | Kd [6] [nM] | Papp A→B at 10 µM [7] [×10⁻⁶ cm/s] | IC50 (A2780 [8]) [nM]
1 | C/C=C(\C)C(=O)N[C@@H](c1ccccc1)[C@@H](O)C(=O)O[C@H]1C[C@@]2(O)[C@@H](OC(=O)c3cccc(N=[N+]=[N-])c3)[C@@H]3[C@]4(OC(C)=O)CO[C@@H]4C[C@H](OC(=O)CC)[C@@]3(C)C(=O)[C@H](O)C(=C1C)C2(C)C | 14 | 5.2 | 498 | 2.79 | 0.265 | 1.1 | 0.095 | 2.7
2 | C/C=C(\C)C(=O)N[C@@H](c1ccccc1)[C@@H](O)C(=O)O[C@H]1C[C@@]2(O)[C@@H](OC(=O)c3cccc(N=[N+]=[N-])c3)[C@@H]3[C@]4(OC(C)=O)CO[C@@H]4C[C@H](OC(=O)C4CC4)[C@@]3(C)C(=O)[C@H](O)C(=C1C)C2(C)C | 293 | 13.3 | 2150 | 1.28 | 9.4 | 0.95 | 7.35 | 22
3 | C/C=C(\C)C(=O)N[C@@H](c1ccccc1)[C@@H](O)C(=O)O[C@H]1C[C@@]2(O)[C@@H](OC(=O)c3cccc(N=[N+]=[N-])c3)[C@@H]3[C@]4(OC(C)=O)CO[C@@H]4C[C@H](OC(=O)CN(C)C)[C@@]3(C)C(=O)[C@H](O)C(=C1C)C2(C)C | 3200 | 444.4 | 2380 | 6.44 | 27 | 1.48 | 4.19 | 7.2
4 | C/C=C(\C)C(=O)N[C@@H](c1ccccc1)[C@@H](O)C(=O)O[C@H]1C[C@@]2(O)[C@@H](OC(=O)c3cccc(N=[N+]=[N-])c3)[C@@H]3[C@]4(OC(C)=O)CO[C@@H]4C[C@H](OC(=O)CNC(=O)OC(C)(C)C)[C@@]3(C)C(=O)[C@H](O)C(=C1C)C2(C)C | 875 | 56.4 | 6340 | 6.93 | 8.53 | 0.81 | 1.23 | 15.5
5 | C/C=C(\C)C(=O)N[C@@H](c1ccccc1)[C@@H](O)C(=O)O[C@H]1C[C@@]2(O)[C@@H](OC(=O)c3cccc(N=[N+]=[N-])c3)[C@@H]3[C@]4(OC(C)=O)CO[C@@H]4C[C@H](OC(=O)CCl)[C@@]3(C)C(=O)[C@H](O)C(=C1C)C2(C)C | 710 | 41.2 | 2750 | 5.63 | 1.07 | 0.62 | 0.19 | 17.2
6 | C/C=C(\C)C(=O)N[C@@H](c1ccccc1)[C@@H](O)C(=O)O[C@H]1C[C@@]2(O)[C@@H](OC(=O)c3cccc(N=[N+]=[N-])c3)[C@@H]3[C@]4(OC(C)=O)CO[C@@H]4C[C@H](OC(=O)CC(F)(F)F)[C@@]3(C)C(=O)[C@H](O)C(=C1C)C2(C)C | 1300 | 39.4 | 4310 | 2.2 | 6.61 | 0.66 | 3 | 33
7 | C/C=C(\C)C(=O)N[C@@H](c1ccccc1)[C@@H](O)C(=O)O[C@H]1C[C@@]2(O)[C@@H](OC(=O)c3cccc(N=[N+]=[N-])c3)[C@@H]3[C@]4(OC(C)=O)CO[C@@H]4C[C@H](OC(=O)OCC)[C@@]3(C)C(=O)[C@H](O)C(=C1C)C2(C)C | 170 | 15.2 | 1420 | 1.68 | 12.6 | 0.9 | 7.46 | 11.2
8 | C/C=C(\C)C(=O)N[C@@H](c1ccccc1)[C@@H](O)C(=O)O[C@H]1C[C@@]2(O)[C@@H](OC(=O)c3cccc(N=[N+]=[N-])c3)[C@@H]3[C@]4(OC(C)=O)CO[C@@H]4C[C@H](OC(=O)NC)[C@@]3(C)C(=O)[C@H](O)C(=C1C)C2(C)C | 1400 | 189.2 | 3150 | 7.48 | 19.1 | 2.15 | 2.55 | 7.4
9 | C/C=C(\C)C(=O)N[C@@H](c1ccccc1)[C@@H](O)C(=O)O[C@H]1C[C@@]2(O)[C@@H](OC(=O)c3cccc(N=[N+]=[N-])c3)[C@@H]3[C@]4(OC(C)=O)CO[C@@H]4C[C@H](OC(=O)N(C)C)[C@@]3(C)C(=O)[C@H](O)C(=C1C)C2(C)C | 950 | 36.5 | 5290 | – | – | 2.45 | – | 26
10 | CC(=O)O[C@H]1C(=O)[C@@]2(C)[C@H]([C@H](OC(=O)c3ccccc3)[C@]3(O)C[C@H](OC(=O)[C@H](O)[C@@H](NC(=O)c4ccccc4)c4ccccc4)C(C)=C1C3(C)C)[C@]1(OC(C)=O)CO[C@@H]1C[C@@H]2O [PACLITAXEL] | 1900 | 3064 | 35 | 7.62 | 5.03 | 56 | 0.66 | 0.62
11 | CC(C)NCC(O)COc1cccc2ccccc12 (stereo not given) [PROPRANOLOL] | – | – | – | 1.21 | 23.4 | – | 19.2 | –
